In patent US20250049815A1, “25-HYDROXYCHOLESTEROL (25HC), CRYAB AGGREGATION INHIBITOR TO AMELIORIATE VASCULAR STIFFNESS” (Buck Institute for Research on Aging, priority 2021, published 2025):
“Also recorded” adds a separate entry of the source.

Columns and labels:
[1] = tested on: senescent cells; experiment: Evaluation of senolytic effects in cell culture; type: cell-based
Excerpt: Genetic knockdown of this gene kills senescent cells.
There are some commercially available analogs of 25HC such as oxysterols (Griffiths et al. (2019) Biochem Soc Trans., 47: 517-526).

[2] = tested on: senescent human fetal lung fibroblast (IMR-90); experiment: Cell viability assay (Cell Counting Kit-8) on NS and SEN IMR-90 cells; type: cell-based; conditions: treatment started immediately after removing DMSO/250 nM Doxo, 72 hrs
Procedure: Panel A) Timeline for DMSO/250 nM Doxo treatment and early-time point timeline for 24(S)-HC and 27HC treatment on NS and SEN cells. 24(S)HC and 27HC treatment were started immediately after removing DMSO/Doxo. Panel B) and C) Cell viability assay were performed on NS and SEN cells treated with different concentrations of 24(S)HC and 27HC, respectively. 24(S)HC and 27HC treatment were done for 72 hrs. The cell viability was analyzed by Cell Counting Kit-8 according to the manufactures' protocol using Spectra Max 190 (Molecular Devices). The value was normalized to that of DMSO. (Mean +/−SE, n=3, *p<0.05, **p<0.01 and ***p<0.001 by student's t-test).

[3] = tested on: senescent FAPs; experiment: Cell viability assay on NS and SEN FAPs treated with 25HC; type: cell-based, mouse; conditions: 25HC started immediately after removing DMSO/Doxo (early time point), total 5 days
Procedure: Panel A) Timeline for DMSO/Doxo treatment and early-time point timeline for 25HC treatment on NS and SEN cells. 25HC treatment was started immediately after removing DMSO/Doxo. Panel B) Cell viability assay was performed on NS and SEN cells treated with different concentrations of 25HC. 25HC treatment was done for total 5 days. The value was normalized to that of 0 uM. The average value of 0 M is expressed as 100% (Mean +/−SE, n=3, **p<0.01 and ***p<0.001 by student's t-test vs NS).

[4] = tested on: CRYAB; conditions: Makley et al. (2015) Science, 350: 674-7; cited from earlier work
[5] = tested on: senescent mDFs; experiment: Cell viability assay on NS and SEN mDFs treated with 25HC; type: cell-based, mouse; conditions: 72 hrs
Procedure: (§1) Panel A) Timeline for DMSO/Doxo treatment and early-time point timeline for 25HC treatment on NS and SEN cells. 25HC treatment was started immediately after removing DMSO/Doxo. Panel B) Cell viability assay was performed on NS and SEN cells treated with different concentrations of 25HC. 25HC treatment was done for 72 hrs. (Mean +/−SD, n=3, *p<0.05, **p<0.01 vs 0 uM by student's t-test).
as §1, with “late-time” for “early-time”, “7 days” for “immediately”, “n=6, **p<0.01, ***p<0.001, ****p<0.0001,” for “n=3, *p<0.05, **p<0.01”

[6] = tested on: aged female C57BL/6J p16-3MR mice; experiment: Pulsed wave velocity (PWV) of the aorta by doppler imaging in aged mice; type: in vivo, mouse; conditions: 27 months at baseline, 25HC 50 mpk IP or GCV, 1 and 2 months post treatment, vs untreated controls
Procedure: At baseline, animals were evaluated for blood flow in the aorta using doppler imaging. This determines a measure of vascular stiffness with vessels being more stiff having faster flow.

[7] = tested on: mouse dermal fibroblasts (mDFs); experiment: qPCR of senescence marker and CRYAB mRNA in Doxo treated mDFs; type: cell-based; conditions: 250 nM Doxo for 24 hours; day 1, 5, 14; normalized to β-actin, vs DMSO
Procedure: (§2) As shown, mDFs undergo senescence upon 250 nM of Doxo treatment for 24 hours (Day 0). Real-time quantitative PCR (qPCR) was performed on RNA samples isolated from DMSO treated NS (Non-Senescent) mDF cells or Doxo treated SEN (Senescent) mDF cells at day 1, 5, and 14 after Doxo treatment. The amount of mRNA was normalized to the level of β-actin (see, e.g., Demaria et al. (2017) Cancer Discovery, 2: 165-176; and references cited therein). Relative levels of p16INK4a mRNA for DMSO and Doxo treated mDFs was measured. The average value of DMSO is expressed as 1. (Mean +/−SE, n=4, **p<0.01, ****p<0.0001 by Dunnett's multiple comparisons test vs DMSO).
as §2, with “Real-time” for “As shown, mDFs undergo senescence upon 250 nM of Doxo treatment for 24 hours (Day 0). Real-time”, “NS” for “NS (Non-Senescent)”, “SEN” for “SEN (Senescent)”, “CRYAB” for “p16INK4a”, “*p<0.05, ***p<0.001” for “**p<0.01, ****p<0.0001”

[8] = tested on: mouse primary fibro adipogenic progenitors (FAPs); experiment: qPCR of senescence marker and CRYAB mRNA in Doxo treated FAPs; type: cell-based; conditions: normalized to β-actin, vs DMSO
Procedure: As shown, FAPs undergo senescence upon 250 nM of Doxo treatment for 24 hours (Day 0). The mRNA was extracted from DMSO treated NS or Doxo treated SEN FAPs at indicated time points and quantified by qPCR. The amount of mRNA was normalized to the level of β-actin. The graphs show the relative levels of p16INK4a mRNA for DMSO and Doxo treated samples. The average value of DMSO is expressed as 1 (Mean +/−SE, n=3, *p<0.05 by Dunnett's multiple comparisons test vs DMSO).
The cells were treated with 250 nM doxorubicin and incubated for 24 hrs (Day 0). The mRNA was extracted from DMSO treated NS or Doxo treated SEN FAPs at the indicated time points and quantified by qPCR. The amount of mRNA was normalized to the level of β-actin mRNA. The average value of DMSO is expressed as 1 (Mean +/−SE, n=3, **p<0.01 and ***p<0.001 by Dunnett's multiple comparisons test vs DMSO).

Row | SMILES | senolytic effect [1] | also measured
1 | C[C@@H](CCCC(C)(O)c1ccccc1)C1CCC2C3CC=C4C[C@H](O)CC[C@@]4(C)C3CC[C@]21C (relative stereo) [rel-(3R,10S,13S)-17-[(2S)-6-hydroxy-6-phenylheptan-2-yl]-10,13-dimethyl-2,3,4,7,8,9,10,11,12,13,14,15,16,17-tetradecahydro-1H-cyclopenta[a]phenanthren-3-ol] | novel senolytics | –
2 | C[C@H](CCCC(C)(C)O)[C@H]1CC[C@H]2[C@@H]3[C@H](O)C=C4C[C@@H](O)CC[C@]4(C)[C@H]3CC[C@]12C [7α,25-Dihydroxycholesterol] | novel senolytics | –
3 | CC(C)CCC[C@@H](C)[C@H]1CC[C@H]2[C@@H]3[C@H](O)C=C4C[C@@H](O)CC[C@]4(C)[C@H]3CC[C@]12C [7αHC, 7α-Hydroxycholesterol] | novel senolytics | –
4 | CC(C)CCC[C@@H](C)[C@H]1CC[C@H]2[C@@H]3[C@@H](O)C=C4C[C@@H](O)CC[C@]4(C)[C@H]3CC[C@]12C [7βHC, 7β-Hydroxycholesterol] | novel senolytics | –
5 | CC(C)CC[C@@H](O)[C@@H](C)[C@H]1CC[C@H]2[C@@H]3CC=C4C[C@@H](O)CC[C@]4(C)[C@H]3CC[C@]12C [22(R)HC, 22(R)-Hydroxycholesterol] | novel senolytics | –
6 | CC(C)[C@@H](O)CC[C@@H](C)[C@H]1CC[C@H]2[C@@H]3CC=C4C[C@@H](O)CC[C@]4(C)[C@H]3CC[C@]12C [24(S)HC, 24(S)-Hydroxycholesterol] | novel senolytics | cell viability of senescent vs non-senescent IMR-90 cells [2]: specifically kill senescent human fetal lung fibroblast; also recorded: specifically kill senescent IMR-90 cells
7 | C[C@H](CCCC(C)(C)O)[C@H]1CC[C@H]2[C@@H]3CC=C4C[C@@H](O)CC[C@]4(C)[C@H]3CC[C@]12C [25HC, 25-hydroxycholesterol] | novel senolytic agent | cell viability of senescent vs non-senescent FAPs [3]: specifically kills senescent FAPs; inhibition of CRYAB [4]: effective inhibitor of CRYAB; cell viability of senescent vs non-senescent mDFs, late time point ([5]; 25HC started 7 days after removing DMSO/Doxo): specifically kills senescent mDFs; cell viability of senescent vs non-senescent mDFs, early time point ([5]; 25HC started immediately after removing DMSO/Doxo): specifically kills senescent mDFs; pulsed wave velocity (PWV) of the aorta [6]: reduces PWV
8 | CC(=O)CCC[C@@H](C)[C@H]1CC[C@H]2[C@@H]3CC=C4C[C@@H](O)CC[C@]4(C)[C@H]3CC[C@]12C [27-Nor-25-ketocholesterol] | novel senolytics | –
9 | C[C@@H](CO)CCC[C@@H](C)[C@H]1CC[C@H]2[C@@H]3CC=C4C[C@@H](O)CC[C@]4(C)[C@H]3CC[C@]12C [27HC, 27-Hydroxycholesterol] | novel senolytics | cell viability of senescent vs non-senescent IMR-90 cells [2]: specifically kill senescent human fetal lung fibroblast; also recorded: specifically kill senescent IMR-90 cells
10 | CC(CCCN(C)C)C1CCC2C3CC=C4C[C@@H](O)CC[C@]4(C)C3CC[C@]12C (stereo partly drawn) [(3S,10R,13R)-17-(5-(dimethylamino)pentan-2-yl)-10,13-dimethyl-2,3,4,7,8,9,10,11,12,13,14,15,16,17-tetradecahydro-1H-cyclopenta[a]phenanthren-3-ol] | novel senolytics | –
11 | C[C@H](CCC(=O)O)[C@H]1CCC2[C@@H]3CC=C4C[C@H](O)CC[C@]4(C)C3CC[C@@]21C (stereo partly drawn) [(3alpha,9xi,14xi)-3-hydroxychol-5-en-24-oic acid] | novel senolytics | –
12 | C=C1CC[C@@H](O)CC1=C/C=C1\CCC[C@]2(C)[C@@H]([C@H](C)CCCC(C)(C)O)CC[C@@H]12 [Calcifediol 25-Hydroxyvitamin D3, reference compound] | novel senolytics | –
13 | COc1cccc2c1C(=O)c1c(O)c3c(c(O)c1C2=O)C[C@@](O)(C(=O)CO)C[C@@H]3O[C@H]1C[C@H](N)[C@H](O)[C@H](C)O1 [Doxo, doxorubicin] | – | relative level of CRYAB mRNA [7]: upregulated CRYAB; relative level of p16INK4a mRNA [7]: induces senescence marker, p16INK4a; senescence induction (relative level of p16INK4a mRNA) ([8]; 250 nM Doxo for 24 hours): induced senescence; expression of CRYAB mRNA ([8]; 250 nM doxorubicin for 24 hrs): significantly increased
14 | Nc1nc(O)c2ncn(COC(CO)CO)c2n1 [GCV, ganciclovir, reference compound] | – | pulsed wave velocity (PWV) of the aorta [6]: reduces PWV
